# Reference: PMC1890308, “Anti-calmodulins and Tricyclic Adjuvants in Pain Therapy Block the TRPV1 Channel” (PLoS ONE, 2007)
# pIC50: −log10 of the molar value. Values joined by “and” are separate entries in the source; they are usually repeats but may differ in a detail not shown here. Equal values may be shown once.
# How the values were obtained:
# [1] = tested on: intermediate Ca2+-activated K+ channels (IKCa); details: human erythrocytes; cited from earlier work
# TRPV1 [2] = molecular target: T1, TRPV1 (Rattus norvegicus, UniProt O35433); assay: capsaicin-induced Ca2+-uptake in human TRPV1-HaCaT keratinocyte line; assay type: cell-based; set-up: expressed in transfected cells; details: data not shown
# T1 sequence (O35433 whole entry): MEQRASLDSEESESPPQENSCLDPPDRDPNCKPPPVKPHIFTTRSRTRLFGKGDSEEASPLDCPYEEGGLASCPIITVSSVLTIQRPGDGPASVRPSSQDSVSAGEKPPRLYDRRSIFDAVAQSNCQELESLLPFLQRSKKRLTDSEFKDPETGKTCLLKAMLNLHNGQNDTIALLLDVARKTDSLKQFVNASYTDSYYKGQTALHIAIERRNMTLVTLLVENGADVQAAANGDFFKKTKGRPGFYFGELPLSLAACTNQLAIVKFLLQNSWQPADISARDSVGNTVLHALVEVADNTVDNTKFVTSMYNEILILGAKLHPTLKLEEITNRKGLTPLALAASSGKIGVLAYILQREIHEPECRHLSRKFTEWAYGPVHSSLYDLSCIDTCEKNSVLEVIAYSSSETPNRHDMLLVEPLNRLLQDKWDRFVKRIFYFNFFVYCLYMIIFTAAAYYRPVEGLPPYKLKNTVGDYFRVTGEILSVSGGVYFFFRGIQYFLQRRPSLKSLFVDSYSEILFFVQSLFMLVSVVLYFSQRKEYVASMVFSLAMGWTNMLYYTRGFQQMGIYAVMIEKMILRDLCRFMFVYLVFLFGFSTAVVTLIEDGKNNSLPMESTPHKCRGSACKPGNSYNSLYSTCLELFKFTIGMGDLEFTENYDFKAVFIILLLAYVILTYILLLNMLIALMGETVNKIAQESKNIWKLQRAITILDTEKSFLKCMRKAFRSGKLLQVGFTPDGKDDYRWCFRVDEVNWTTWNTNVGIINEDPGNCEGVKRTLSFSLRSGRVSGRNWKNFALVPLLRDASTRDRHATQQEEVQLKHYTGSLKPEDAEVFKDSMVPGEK
# Description: (§1) Assays were carried out in 2×10^−5 M extracellular Ca^2+ in 96 well plate formats at room temperature (22°C) for 10 min with robotic liquid handling. […] We hypothesized that calmodulin antagonists and some registered drugs may exert their blocking effect with another mechanisms on TRPV1 and not necessarily on their conventional target.
# (§2) TRPV1-NIH3T3 mouse fibroblast line, ectopically expressing the rat TRPV1 was established previously.
# Vanilloid agonist inducible calcium transport was assayed in adherent cell lines ectopically expressing the C-terminally ε-tagged rat TRPV1 (3×10^4 cells/well) and primary cultures prepared from embryonic DRG, seeded in poly-D lysine/collagen coated 96 well plates. […] The previously established cell lines and standardized DRG cultures were extensively characterized for functional cell-based TRPV1 studies [1]–[4]. Immediately before the transport assay, cells were adapted to room temperature (20°C) for 5 min in HCM. ^45Ca^2+-uptake was performed for 10 min at 20°C in HCM using 0.1 µCi ^45Ca^2+ as radioactive tracer in a 100 µl final volume. […] Aliquots of the solubilized cell extracts were mixed with 120 µl Microscint-40 and counted in a 96 well plate liquid scintillation counter (TopCount-NXT, Packard).
# rat TRPV1 = molecular target: T2, rat TRPV1 (Rattus norvegicus, UniProt O35433); assay: capsaicin-induced 45Ca2+-uptake in TRPV1-NIH3T3 cells; assay type: cell-based
# T2 construct: expressed in transfected cells
# T2 sequence (O35433 whole entry): as above
# Description: as §1, §2
# (§3) Vanilloid agonist inducible calcium transport was assayed in adherent cell lines ectopically expressing the C-terminally ε-tagged rat TRPV1 (3×10^4 cells/well) and primary cultures prepared from embryonic DRG, seeded in poly-D lysine/collagen coated 96 well plates. […] The previously established cell lines and standardized DRG cultures were extensively characterized for functional cell-based TRPV1 studies [1]–[4]. Immediately before the transport assay, cells were adapted to room temperature (20°C) for 5 min in HCM. ^45Ca^2+-uptake was performed for 10 min at 20°C in HCM using 0.1 µCi ^45Ca^2+ as radioactive tracer in a 100 µl final volume. To stop ^45Ca^2+-uptake, cells were rapidly changed back into 0.2 ml HCM, washed 4 additional times with 0.2 ml HCM, and then lysed in 80 µl/well RIPA buffer (50 mM Tris-HCl, pH 7.5, 150 mM NaCl, 1% Triton X-100, 0.5% deoxycholate, 0.1% SDS, 5 mM EDTA) for 30 min [1]–[4]. Aliquots of the solubilized cell extracts were mixed with 120 µl Microscint-40 and counted in a 96 well plate liquid scintillation counter (TopCount-NXT, Packard).
# kainic acid receptors = assay: kainic acid-evoked responses of spinal dorsal horn neurons, microiontophoresis; assay type: in vivo; details: anesthetized rat, iontophoresis, mean±SD, n = 16
# Description: In another set of experiments, effects of calmidazolium were investigated on the responses of dorsal horn neurons evoked by NMDA and kainic acid agonists of different glutamate receptors, well characterized transducers of pain signals, more centrally. Neuronal firing responses to iontophoresed NMDA or kainic acid were typically fast in onset and short in duration (Fig. 8). Ejection currents for these excitatory agents were delivered alternately in every 2 min and were selected to produce a maximal peak height of 50–70 spikes/s which corresponded to 300–400 action potentials per stimulation epoch. Iontophoretic application of calmidazolium produced significant reduction in responses to both NMDA and kainic acid. Maximal inhibition of NMDA- or kainic acid -evoked responses were reached 15–20 min after calmidazolium application and remained so during the rest of the 2 hour long experiment. […]
# Extracellular single-neuron recordings were made in chloral hydrate-anesthetized ([…] initial dose, i.p., with supplemental doses as required) male Wistar rats weighing between 350–450 g. […] Rectal temperature as well as the temperature of the mineral oil were monitored with temperature probes and kept at 37°C by a warm water-heated blanket beneath the rat and an infrared heat lamp from above. […]
# TRPV1 [3] = molecular target: T1, TRPV1; assay: capsaicin-induced 45Ca2+-uptake in primary rat embryonic DRG cultures; assay type: cell-based; set-up: sensory neurons, expressing TRPV1 endogenously; endogenous in cells; host or cells: primary cultures of embryonic rat dorsal root ganglia (E14, E16)
# Description: Primary cultures were prepared from embryonic (E14) rat DRGs. Along with calmidazolium other polycyclic compounds were included in the vanilloid-induced ^45Ca^2+-transport assays.
# Primary DRG cultures were prepared from E16 embryonic rats as described previously then plated in 15 cm Petri dishes for 4 h to remove the most adherent fibroblasts. For Ca^2+-uptake studies primary afferents neurons cultured in 96 well plates (3×10^3 cells/well), coated with poly-D lysine/collagen, which yielded both axons and dendrites bearing neurons due to neuronal growth factor supplementation in the culture medium [1]–[4]. The dendrites are large processes branching from the cell body that taper in diameter further from the cell body. The axons are a constant diameter and project over long distances from the cell body. Before the ion transport experiment, culture medium was removed and cells were washed three times. ^45Ca-uptake assays were carried out in “nominally zero Ca^2+” (i.e. 2×10^−5 M extracellular Ca^2+ ([Ca^2+]o) in 25 mM Tris-HCl buffered Hanks' balanced salt solution (pH 7.5), supplemented with 10 µM CaCl2 and 0.8 mM MgCl2medium (HCM) [1]–[4].
# as §3
# [4] = increasing concentrations of capsaicin
compound,measurement,setting,value
Clc1ccc(C(c2ccc(Cl)cc2)n2cc[n+](CC(OCc3ccc(Cl)cc3Cl)c3ccc(Cl)cc3Cl)c2)cc1 (stereo not drawn) [calmidazolium],activity on IKCa channels (in words),[1],inactive
same,efficacy on TRPV1 (in words),TRPV1 [2],µM scale
same,antagonist activity on capsaicin-induced Ca2+-uptake (in words),rat TRPV1; 2 µM capsaicin,full antagonists
same,pIC50,"rat TRPV1; 2 µM capsaicin, 10 min, 2×10^−5 M extracellular Ca2+, room temperature, read-out: IC50, inhibition of capsaicin-induced 45Ca2+-uptake",5.15 and ~5.70
same,concentration above which Ca2+-transport was almost completely abolished,rat TRPV1; [4],> 2.5 µM
same,kinetics of Ca2+-transport inhibition,rat TRPV1; [4],decreased Vmax
same,"responses to kainic acid, % of pre-calmidazolium baseline control",kainic acid receptors,47±20%
same,fold higher potency in DRG cultures,TRPV1 [3]; DRG cultures vs TRPV1-NIH3T3 cells / other compounds (comparator unclear),~3 fold
same,pIC50,"TRPV1 [3]; rat embryonic DRG sensory neuron cultures, 2 µM capsaicin, read-out: IC50, inhibition of capsaicin-induced Ca2+-uptake",6.22 and ~6.22
